Results taken from patent US10519134B2, “Pyrazole compounds and methods of making and using same” (Lundbeck La Jolla Research Center, Inc., priority 2015, dated 2019).

Assays:
MAGL = target: T1, MAGL (Mus musculus, UniProt O35678); assay: In vitro competitive activity-based protein profiling (mouse), MAGL gel band; type: biochemical; settings: for IC50: mouse; for inhibition at 1 µM: read-out: MAGL % inh. 1 μM
T1 construct: Proteomes (mouse brain membrane fraction or cell lysates); from tissue; host or cells: mouse brain membrane fraction (or cell lysates)
T1 sequence (O35678 1-303): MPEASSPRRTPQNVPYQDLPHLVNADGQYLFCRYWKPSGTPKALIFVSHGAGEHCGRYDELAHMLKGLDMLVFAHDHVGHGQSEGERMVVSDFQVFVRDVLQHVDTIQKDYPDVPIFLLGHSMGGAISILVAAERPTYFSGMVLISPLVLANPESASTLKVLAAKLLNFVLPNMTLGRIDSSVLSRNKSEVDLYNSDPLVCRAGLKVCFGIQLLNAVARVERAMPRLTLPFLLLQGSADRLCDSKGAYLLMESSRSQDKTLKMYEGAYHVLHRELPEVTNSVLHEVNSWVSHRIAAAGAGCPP
In short: (§1)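 Competitive ABPP: inhibitors at varying concentrations were given 30 min at 37 °C with mouse brain membranes or cell lysates (1.0 mg/mL total protein) before 30 min labelling by FP-Rh or HT-01 (stock 50 μM in DMSO). Residual hydrolase activity read as in-gel fluorescence of MAGL and FAAH bands.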

FAAH = target: T2, FAAH (Mus musculus, UniProt O08914); assay: In vitro competitive activity-based protein profiling (mouse), FAAH gel band; type: biochemical; settings: for IC50: mouse; for inhibition at 1 µM: read-out: FAAH % inh. 1 μM
T2 construct: Proteomes (mouse brain membrane fraction or cell lysates); from tissue; host or cells: mouse brain membrane fraction (or cell lysates)
T2 sequence (O08914 1-579): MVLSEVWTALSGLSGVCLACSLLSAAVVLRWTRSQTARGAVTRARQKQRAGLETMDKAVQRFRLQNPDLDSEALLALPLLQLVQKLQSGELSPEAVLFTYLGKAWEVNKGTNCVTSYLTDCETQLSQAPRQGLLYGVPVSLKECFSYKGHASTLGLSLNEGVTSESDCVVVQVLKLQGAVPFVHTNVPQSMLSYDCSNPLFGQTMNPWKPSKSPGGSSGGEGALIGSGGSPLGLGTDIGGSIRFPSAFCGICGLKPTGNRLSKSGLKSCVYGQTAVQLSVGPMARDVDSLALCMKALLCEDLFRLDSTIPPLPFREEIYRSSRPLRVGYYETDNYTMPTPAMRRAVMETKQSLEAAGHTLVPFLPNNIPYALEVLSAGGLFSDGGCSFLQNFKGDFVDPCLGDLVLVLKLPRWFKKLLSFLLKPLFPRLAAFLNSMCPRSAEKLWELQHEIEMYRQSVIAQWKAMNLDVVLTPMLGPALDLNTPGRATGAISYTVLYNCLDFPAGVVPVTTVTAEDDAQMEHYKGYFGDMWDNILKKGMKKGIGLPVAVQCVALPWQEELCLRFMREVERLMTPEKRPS
In short: as §1

CC(=O)Nc1ccn(C(=O)N2CCC3(CCCN3Cc3ccc4c(c3)COC4)CC2)n1 [Example 97, N-(1-(1-((1,3-dihydroisobenzofuran-5-yl)methyl)-1,8-diazaspiro[4.5]decane-8-carbonyl)-1H-pyrazol-3-yl)acetamide] was tested, and the IC50 (MAGL) was 0.1 to 1 µM, the inhibition at 1 µM (MAGL) was no less than 75% and the IC50 (FAAH) was 1 to 10 µM. It also gave an inhibition at 1 µM (FAAH) of 0 to 25%.

For CS(=O)(=O)Nc1ccn(C(=O)N2CCC3(CCCN3Cc3ccc(Cl)cc3N3CCCCC3)CC2)n1 [Example 132, N-(1-(1-(4-chloro-2-(piperidin-1-yl)benzyl)-1,8-diazaspiro[4.5]decane-8-carbonyl)-1H-pyrazol-3-yl)methanesulfonamide], the inhibition at 1 µM (MAGL) was 50 to 75% and the inhibition at 1 µM (FAAH) was 0 to 25%.

CS(=O)(=O)Nc1ccn(C(=O)N2CCC3(CCCN3Cc3ccc(Cl)cc3N3C[C@H]4CC[C@@H](C3)O4)CC2)n1 [Example 139, N-(1-(1-(2-((1R,5S)-8-oxa-3-azabicyclo[3.2.1]octan-3-yl)-4-chlorobenzyl)-1,8-diazaspiro[4.5]decane-8-carbonyl)-1H-pyrazol-3-yl) methanesulfonamide] gave an IC50 (MAGL) of 0.1 to 1 µM, an inhibition at 1 µM (MAGL) of no less than 75% and an IC50 (FAAH) of 1 to 10 µM. For the same compound, the inhibition at 1 µM (FAAH) was 0 to 25%.

CC(=O)Nc1ccn(C(=O)N2CCC3(CCCN3Cc3ccc(C(F)(F)F)cc3N3CCC4(C3)CN(S(C)(=O)=O)C4)CC2)n1 [Example 27, N-(1-(1-(2-(2-(methylsulfonyl)-2,6-diazaspiro[3.4]octan-6-yl)-4-(trifluoromethyl)benzyl)-1,8-diazaspiro[4.5]decane-8-carbonyl)-1H-pyrazol-3-yl)acetamide] showed an IC50 (MAGL) of no more than 0.1 µM, an inhibition at 1 µM (MAGL) of no less than 75% and an IC50 (FAAH) of 1 to 10 µM. For the same compound, the inhibition at 1 µM (FAAH) was 0 to 25%.

CS(=O)(=O)Nc1ccn(C(=O)N2CCC3(CCCN3Cc3cccc(N4CCOCC4)c3Cl)CC2)n1 [Example 143, N-(1-(1-(2-chloro-3-morpholinobenzyl)-1,8-diazaspiro[4.5]decane-8-carbonyl)-1H-pyrazol-3-yl) methanesulfonamide] showed an inhibition at 1 µM (MAGL) of 50 to 75% and an inhibition at 1 µM (FAAH) of 0 to 25%.

Work on CS(=O)(=O)Nc1ccn(C(=O)N2CCN(Cc3ccc(N4CCOCC4)cc3C(F)(F)F)CC2)n1 [Example 157, N-(1-(4-(4-morpholino-2-(trifluoromethyl)benzyl)piperazine-1-carbonyl)-1H-pyrazol-3-yl) methanesulfonamide] yielded an inhibition at 1 µM (MAGL) of 25 to 50% and an inhibition at 1 µM (FAAH) of 0 to 25%.

In the case of COc1cc(-c2ccccc2)ccc1CN1CCN(C(=O)n2ccc(NS(C)(=O)=O)n2)CC1 [Example 151, N-(1-(4-((3-methoxy-[1,1′-biphenyl]-4-yl)methyl)piperazine-1-carbonyl)-1H-pyrazol-3-yl) methanesulfonamide], the inhibition at 1 µM (MAGL) is reported as no less than 75% and the inhibition at 1 µM (FAAH) is reported as 25 to 50%.

For CC(=O)Nc1ccn(C(=O)N2CCC3(CCCN3Cc3ccc(C(F)(F)F)cc3N3CCN(C4CC4)CC3)CC2)n1 [Example 30, N-(1-(1-(2-(4-cyclopropylpiperazin-1-yl)-4-(trifluoromethyl)benzyl)-1,8-diazaspiro[4.5]decane-8-carbonyl)-1H-pyrazol-3-yl)acetamide], the IC50 (MAGL) was 0.1 to 1 µM, the inhibition at 1 µM (MAGL) was no less than 75% and the IC50 (FAAH) was 1 to 10 µM. For the same compound, the inhibition at 1 µM (FAAH) was 0 to 25%.

CS(=O)(=O)Nc1ccn(C(=O)N2CCC3(CCCN3Cc3ccc(Cl)cc3N3CCOCC3)CC2)n1 [Example 264, N-(1-(1-(4-chloro-2-morpholinobenzyl)-1,8-diazaspiro[4.5]decane-8-carbonyl)-1H-pyrazol-3-yl) methanesulfonamide] showed an inhibition at 1 µM (MAGL) of 25 to 50% and an inhibition at 1 µM (FAAH) of 0 to 25%.

CS(=O)(=O)Nc1ccn(C(=O)N2CCN(Cc3cc(N4CCC(C(=O)O)C4)cc(C(F)(F)F)c3)CC2)n1 (centres unmarked) [Example 244, 1-(3-((4-(3-(methylsulfonamido)-1H-pyrazole-1-carbonyl)piperazin-1-yl)methyl)-5-(trifluoromethyl)phenyl)pyrrolidine-3-carboxylic acid] was tested, and the inhibition at 1 µM (MAGL) was 0 to 25% and the inhibition at 1 µM (FAAH) was 0 to 25%.

CS(=O)(=O)Nc1ccn(C(=O)N2CCN(Cc3ccc(N4CCOCC4)c(Cl)c3)CC2)n1 [Example 170, N-(1-(4-(3-chloro-4-morpholinobenzyl)piperazine-1-carbonyl)-1H-pyrazol-3-yl) methanesulfonamide] was tested, and the inhibition at 1 µM (MAGL) was 25 to 50% and the inhibition at 1 µM (FAAH) was 0 to 25%.

In the case of CC(=O)Nc1ccn(C(=O)N2CCC3(CCCN3Cc3ccc(C(F)(F)F)c(Cl)c3)CC2)n1 [Example 24, N-(1-(1-(3-chloro-4-(trifluoromethyl)benzyl)-1,8-diazaspiro[4.5]decane-8-carbonyl)-1H-pyrazol-3-yl)acetamide], the IC50 (MAGL) is reported as no more than 0.1 µM, the inhibition at 1 µM (MAGL) is reported as no less than 75% and the IC50 (FAAH) is reported as 1 to 10 µM. It also gave an inhibition at 1 µM (FAAH) of 0 to 25%.

CCN1CCN(c2cc(Cl)ccc2CN2CCCC23CCN(C(=O)n2ccc(NC(C)=O)n2)CC3)CC1 [Example 15, N-(1-(1-(4-chloro-2-(4-ethylpiperazin-1-yl)benzyl)-1,8-diazaspiro[4.5]decane-8-carbonyl)-1H-pyrazol-3-yl)acetamide] gave an IC50 (MAGL) of 0.1 to 1 µM, an inhibition at 1 µM (MAGL) of no less than 75% and an IC50 (FAAH) of 1 to 10 µM. It also gave an inhibition at 1 µM (FAAH) of 0 to 25%.

In the case of CC(=O)Nc1ccn(C(=O)N2CCC3(CCCN3Cc3cc(Oc4nc5ccccc5s4)cc(C(F)(F)F)c3)CC2)n1 [Example 86, N-(1-(1-(3-(benzo[d]thiazol-2-yloxy)-5-(trifluoromethyl)benzyl)-1,8-diazaspiro[4.5]decane-8-carbonyl)-1H-pyrazol-3-yl)acetamide], the inhibition at 1 µM (MAGL) is reported as no less than 75% and the inhibition at 1 µM (FAAH) is reported as 50 to 75%.

CS(=O)(=O)Nc1ccn(C(=O)N2CCC3(CCCN3Cc3ccc(C(F)(F)F)cc3N3CCN(S(C)(=O)=O)CC3)CC2)n1 [Example 255, N-(1-(1-(2-(4-(methylsulfonyl)piperazin-1-yl)-4-(trifluoromethyl)benzyl)-1,8-diazaspiro[4.5]decane-8-carbonyl)-1H-pyrazol-3-yl) methanesulfonamide] was tested, and the inhibition at 1 µM (MAGL) was 0 to 25% and the inhibition at 1 µM (FAAH) was 0 to 25%.

In the case of CS(=O)(=O)Nc1ccn(C(=O)N2CCC3(CCCN3Cc3cccc(N4CC5CCC(C4)O5)c3Cl)CC2)n1 [Example 145, N-(1-(1-(3-(8-oxa-3-azabicyclo[3.2.1]octan-3-yl)-2-chlorobenzyl)-1,8-diazaspiro[4.5]decane-8-carbonyl)-1H-pyrazol-3-yl) methanesulfonamide], the IC50 (MAGL) is reported as 0.1 to 1 µM, the inhibition at 1 µM (MAGL) is reported as no less than 75% and the IC50 (FAAH) is reported as 1 to 10 µM. It also gave an inhibition at 1 µM (FAAH) of 0 to 25%.

CC(=O)Nc1ccn(C(=O)N2CCC3(CCCN3Cc3ccc(Cl)cc3N3CC4COCC4C3)CC2)n1 (centres unmarked) [Example 17, N-(1-(1-(4-chloro-2-(dihydro-1H-furo[3,4-c]pyrrol-5(3H,6H,6aH)-yl)benzyl)-1,8-diazaspiro[4.5]decane-8-carbonyl)-1H-pyrazol-3-yl)acetamide] gave an IC50 (MAGL) of no more than 0.1 µM, an inhibition at 1 µM (MAGL) of no less than 75% and an IC50 (FAAH) of 1 to 10 µM. It also gave an inhibition at 1 µM (FAAH) of 0 to 25%.

CC(=O)Nc1ccn(C(=O)N2CCN(Cc3ccc(C(F)(F)F)cc3N3CCC(C(N)=O)CC3)CC2)n1 [Example 274, 1-(2-((4-(3-acetamido-1H-pyrazole-1-carbonyl)piperazin-1-yl)methyl)-5-(trifluoromethyl)phenyl)piperidine-4-carboxamide] showed an inhibition at 1 µM (MAGL) of no less than 75% and an inhibition at 1 µM (FAAH) of 0 to 25%.

With CC(=O)N1CCN(c2cc(CN3CCN(C(=O)n4ccc(NS(C)(=O)=O)n4)CC3)ccc2Cl)CC1 [Example 284, N-(1-(4-(3-(4-acetylpiperazin-1-yl)-4-chlorobenzyl)piperazine-1-carbonyl)-1H-pyrazol-3-yl) methanesulfonamide] the IC50 (MAGL) was 0.1 to 1 µM, the inhibition at 1 µM (MAGL) was no less than 75% and the IC50 (FAAH) was 1 to 10 µM. The inhibition at 1 µM (FAAH) was 0 to 25%.

With CS(=O)(=O)Nc1ccn(C(=O)N2CCN(Cc3cc(C(F)(F)F)ccc3N3CCOCC3)CC2)n1 [Example 124, N-(1-(4-(2-morpholino-5-(trifluoromethyl)benzyl)piperazine-1-carbonyl)-1H-pyrazol-3-yl) methanesulfonamide] the inhibition at 1 µM (MAGL) was 50 to 75% and the inhibition at 1 µM (FAAH) was 0 to 25%.

CS(=O)(=O)Nc1ccn(C(=O)N2CCC3(CCCN3Cc3ccc(C(F)(F)F)cc3N3CCC(C(=O)O)C3)CC2)n1 (centres unmarked) [Example 245, 1-(2-((8-(3-(methylsulfonamido)-1H-pyrazole-1-carbonyl)-1,8-diazaspiro[4.5]decan-1-yl)methyl)-5-(trifluoromethyl)phenyl) pyrrolidine-3-carboxylic acid] gave an inhibition at 1 µM (MAGL) of 0 to 25% and an inhibition at 1 µM (FAAH) of 0 to 25%.

With O=C(CO)Nc1ccn(C(=O)N2CCN(Cc3ccc(Cl)cc3)CC2)n1 [Example 91, N-(1-(4-(4-chlorobenzyl)piperazine-1-carbonyl)-1H-pyrazol-3-yl)-2-hydroxyacetamide] the inhibition at 1 µM (MAGL) was no less than 75% and the inhibition at 1 µM (FAAH) was 0 to 25%.
